# Test results taken from US12059467B2, “Low-toxicity and high-efficiency orthoester mixture pharmaceutical adjuvant, preparation method thereof, and topical sustained release drug delivery formulation including same” (ANHUI UNIVERSITY, priority 2022, dated 2024).
# Entries after “also recorded” stand apart in the source; their conditions may differ.
# B1: ovalbumin (protein, UniProt P01012 2-386, looked up)
# Ovalbumin: GSIGAASMEFCFDVFKELKVHHANENIFYCPIAIMSALAMVYLGAKDSTRTQINKVVRFDKLPGFGDSIEAQCGTSVNVHSSLRDILNQITKPNDVYSFSLASRLYAEERYPILPEYLQCVKELYRGGLEPINFQTAADQARELINSWVESQTNGIIRNVLQPSSVDSQTAMVLVNAIVFKGLWEKAFKDEDTQAMPFRVTEQESKPVQMMYQIGLFRVASMASEKMKILELPFASGTMSMLVLLPDEVSGLEQLESIINFEKLTEWTSSNVMEERKIKVYLPRMKMEEKYNLTSVLMAMGITDVFSSSANLSGISSAESLKISQAVHAAHAEINEAGREVVGSAEAGVDAASVSEEFRADHPFLFCIKHIATNAVLFFGRCVSP
# notes: ovalbumin alone, injected subcutaneously as comparator
# Key:
# [1] = system: pain model rats; test: Analgesic effect in pain model rats; type: in vivo; conditions: subcutaneous, 200 mg/kg based on a mepivacaine content
# Protocol: Mepivacaine and the prepared mepivacaine injection (E-A′-Mep) each were subcutaneously injected into different pain model rats at a dose of 200 mg/kg based on a mepivacaine content. A time required for a rat to have a normal response to deep pain and electric stimulation and a time required for a rat to return from a motor weakness state to a normal state were then recorded; and when half of rats returned to a normal state, the test was stopped.
# [2] = system: red blood cell (RBC) suspension; test: Hemolysis test; type: cell-based; conditions: 3 mg/mL to 15 mg/mL, 37° C., 3 h; hemolysis rate lower than 5% means no hemolytic effect
# Protocol: Preparation of test samples: negative control: 2.5 mL of a red blood cell (RBC) suspension+2.5 mL of a 0.9% sodium chloride injection; positive control: 2.5 mL of an RBC suspension+2.5 mL of distilled water; and experimental group: 2.5 mL of an RBC suspension+2.2 mL of a 0.9% sodium chloride injection+0.3 mL of a formulation to be tested (3 mg/mL to 15 mg/mL).
# Each sample was incubated in a 37° C. thermostatic water bath for 3 h and then centrifuged (3,000 r/min, 5 min) to obtain a supernatant, the supernatant was allowed to stand at room temperature for 30 min, and the absorbance of the sample was determined at 540 nm by a microplate reader; and the influence of plasma contents was eliminated with the absorbance of the negative control group, and then a hemolysis rate (%) of the experimental group could be calculated according to the following formula: HL%=At/Apc×100%, where At represents an absorbance value of a test sample and APC represents an absorbance value of the positive control. When a hemolysis rate is lower than 5%, it means that the formulation of the experimental group has no hemolytic effect at a corresponding concentration.
# [3] = system: mice; test: Chronic toxicity test; type: in vivo; conditions: subcutaneous, 15,000 mg/kg, 6 months
# Protocol: Different formulations each were subcutaneously injected into different mice at a dose of 15,000 mg/kg, and the continuous behavioral observation, routine blood test, biochemical index test, and organ weight measurement were conducted for 6 months.
# [4] = system: mice; test: Cardiovascular system-associated safety evaluation; type: in vivo; conditions: subcutaneous, 15,000 mg/kg, measured daily in the following week
# Protocol: Different formulations each were subcutaneously injected into different mice at a dose of 15,000 mg/kg, and a blood pressure and a heart rate of mice in each group were measured daily by […] in the following week.
# [5] = system: mice; test: Acute toxicity test (LD50, MTD); type: in vivo
# Protocol: With OE-2 in the patent application 202111500943.7 as a reference formulation, the OE-1′ obtained in Example 1 was subjected to an acute toxicity test, and experimental steps were as follows:
# OE-2 and 0E-1′ each were administered to different mice at a time through intragastric administration, subcutaneous injection, and intraperitoneal injection with a dose gradient from 1 mg/kg to 50,000 mg/kg; poisoning characteristics of mice within 24 h were observed, and a mortality rate was counted; and an accurate LD50 value was calculated according to the probability unit method and the karber's method, and finally experimental groups were compared in terms of acute toxicity.
# Note: The larger the LD50 value in the experimental group, the smaller the acute toxicity.
# [6] = system: mice; test: Respiratory system and blood oxygen saturation tests; type: in vivo; conditions: subcutaneous, 15,000 mg/kg, measured daily in the following week
# Protocol: Different formulations each were subcutaneously injected into different mice at a dose of 15,000 mg/kg, and a breathing rate and a blood oxygen saturation of mice in each group were measured daily by a small animal non-invasive pulse oximeter in the following week.
# [7] = Alcohol metabolite biodistribution test; type: in vivo, mice; conditions: subcutaneous, 15,000 mg/kg; urine, blood, heart, liver, spleen, lung, kidney; gas chromatograph
# Protocol: Preparation of standard solutions: an appropriate amount of methanol or ethanol was accurately weighed and prepared with water into a 10.0 mg/mL standard solution as a stock solution, and the stock solution was further diluted into aqueous solutions with concentrations of 0.10 mg/mL, 0.20 mg/mL, 0.50 mg/mL, 0.80 mg/mL, 1.00 mg/mL, 2.00 mg/mL, and 3.00 mg/mL, respectively. Preparation of an internal standard solution: an appropriate amount of tert-butyl alcohol (TBA) was accurately weighed and prepared with water into a 5.0 mg/mL TBA stock solution, the TBA stock solution was diluted with water to obtain a 40.0 μg/mL TBA working solution, and the TBA working solution was refrigerated and stored in a closed manner.
# Different formulations each were subcutaneously injected into different mice at a dose of 15,000 mg/kg, and then the urine, blood, heart, liver, spleen, lung, and kidney were collected from the mice at different time points. 0.10 mL of each of the standard solutions, urine, blood, and tissue extracts was taken and mixed with 0.50 mL of a 40.0 μg/mL TBA working solution, and a resulting mixture was tested by a gas chromatograph. A standard curve with a linear regression coefficient of 0.999 or higher was plotted with results of the standard solutions, and then a methanol or ethanol content in each sample was calculated. […]
# [8] = system: Hypertension model rats; test: Antihypertensive effect in hypertension model rats; conditions: 40 mg/kg based on an irbesartan content; irbesartan orally, E-1′-Irbe subcutaneous injection
# Protocol: Hypertension model rats were treated with irbesartan and the prepared irbesartan injection (E-1′-Irbe) at a dose of 40 mg/kg based on an irbesartan content, where the irbesartan was administered orally and the irbesartan injection (E-1′-Irbe) was administered through subcutaneous injection. A drug concentration in blood and a blood pressure level were detected at a preset time point.
# [9] = system: mice; test: Antibody-producing effect (IgG) in mice; type: in vivo; conditions: subcutaneous, 50 mg/kg based on an ovalbumin content on day 1 and day 15
# Protocol: Ovalbumin and the prepared ovalbumin injection (E-C′-Ova) were subcutaneously injected into different mice at a dose of 50 mg/kg based on an ovalbumin content on day 1 and day 15, and an IgG concentration was detected.
molecule,measurement,setting,value
"Cc1cccc(C)c1NC(=O)C1CCCCN1C (centres unmarked) [Normal saline (NS) + mepivacaine, mepivacaine]","Time required for half of rats to have a normal response, Deep pain",[1],60 min
same,"Time required for half of rats to have a normal response, Electric stimulation",[1],60 min
same,"Time required for half of rats to have a normal response, Motor weakness",[1],60 min
"CCOC1OCC(COCC2COC(OCC)O2)O1 (centres unmarked) [OE-1′, 4,4′-(Oxybis(Methylene))Bis(2-Ethoxy-1,3-Dioxolane)]",hemolytic effect (hemolysis rate),[2],does not lead to a hemolytic effect
same,organ mass,[3],significantly higher than an organ mass of mice in the OE-2 group
same,cardiovascular function (blood pressure and heart rate),[4],at a normal level
same,tolerance dose of mice (MTD),"[5]; mouse, in vivo",higher than a tolerance dose of mice for OE-2
same,LD50 value,"[5]; single administration, intragastric, subcutaneous, intraperitoneal, mortality within 24 h",significantly higher than an LD50 value of OE-2
same,blood oxygen saturation,[6],at normal levels
same,breathing rate,[6],at normal levels
same,methanol or ethanol content in each sample,[7],a trace amount of ethanol is detected in each sample
CCCCC1=NC2(CCCC2)C(=O)N1Cc1ccc(-c2ccccc2-c2nnn[nH]2)cc1 [irbesartan],blood pressure level,[8],can reduce a blood pressure; also recorded: rebounds rapidly
same,drug concentration in blood,[8],decreases rapidly
B1,IgG concentration,[9],decreases rapidly
